SMILES strings stand for the structures.

T1 sequence (Q00987 17-125): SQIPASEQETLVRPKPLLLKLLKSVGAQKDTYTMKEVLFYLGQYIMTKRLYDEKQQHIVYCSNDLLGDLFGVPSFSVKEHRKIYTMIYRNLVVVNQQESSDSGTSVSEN

The assay concerns the target T1, HDM2 (Homo sapiens, UniProt Q00987).
T1 construct: Thioredoxin (N); made in house; host or cells: E. coli strain BL21(DE3)Rosetta
Nature of the assay: HDM2 FRET assay (inhibition of binding of FITC labeled p53-pocket peptide to HDM2). The conditions noted are these: 0.5 nM HDM2 (residues 17 to 125), 3nM peptide, two hour incubation at room temperature; read-out: FRET IC50. Put shortly:
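Final: 0.5 nM His-HDM2, 3 nM FITC peptide, 0.25 nM Tb anti-His Ab; PBS, 0.01% BSA, 0.01% Tween-20; 0.1% DMSO.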
As a reminder, the IC50 is the concentration needed to halve the response being measured. As to `C[C@H](CO)Nc1nc2nc(-c3noc(=O)[nH]3)nc(-c3cccc(Cl)c3)c2n1C[C@H]1CC[C@H](C)CC1` [Example 16.4, 3-(6-(3-chlorophenyl)-8-(((R)-1-hydroxypropan-2-yl)amino)-7-(((trans)-4-methylcyclohexyl)methyl)-7H-purin-2-yl)-1,2,4-oxadiazol-5(4H)-one], the IC50 was found to be 29.8 nM.

Take `C[C@](CO)(Nc1nc2nc(-c3noc(=O)[nH]3)nc(-c3cccc(Cl)c3)c2n1C[C@H]1CC[C@H](C)CC1)c1ccccc1` [Example 16.5, 3-(6-(3-chlorophenyl)-8-(((S)-1-hydroxy-2-phenylpropan-2-yl)amino)-7-(((trans)-4-methylcyclohexyl)methyl)-7H-purin-2-yl)-1,2,4-oxadiazol-5(4H)-one]: the IC50 stood at 1.59 nM.

With `C[C@@H]1COCCN1c1nc2nc(-c3noc(=O)[nH]3)nc(-c3cccc(Cl)c3)c2n1C[C@H]1CC[C@H](C)CC1` [Example 16.6, 3-(6-(3-chlorophenyl)-7-(((trans)-4-methylcyclohexyl)methyl)-8-((R)-3-methylmorpholino)-7H-purin-2-yl)-1,2,4-oxadiazol-5(4H)-one], the IC50 is 8.05 nM.

On to `C[C@@H]1COCCN1c1nc2nc(-c3n[nH]c(=O)o3)nc(-c3cccc(Cl)c3)c2n1C[C@H]1CC[C@H](C)CC1` [Example 16.7, 5-(6-(3-chlorophenyl)-7-(((trans)-4-methylcyclohexyl)methyl)-8-((R)-3-methylmorpholino)-7H-purin-2-yl)-1,3,4-oxadiazol-2(3H)-one], for which the half-inhibitory concentration (IC50) was 14.5 nM.

`C[C@H](O)[C@H](Nc1nc2nc(-c3noc(=O)[nH]3)nc(-c3cccc(Cl)c3)c2n1C[C@H]1CC[C@H](C)CC1)c1ccccc1` [Example 16.8, 3-(6-(3-chlorophenyl)-8-(((1R,2S)-2-hydroxy-1-phenylpropyl)amino)-7-(((trans)-4-methylcyclohexyl)methyl)-7H-purin-2-yl)-1,2,4-oxadiazol-5(4H)-one]: the IC50 came out at 1.49 nM.

With `C[C@@H]1OC(=O)N(c2nc3nc(-c4noc(=O)[nH]4)nc(-c4cccc(Cl)c4)c3n2C[C@H]2CC[C@H](C)CC2)[C@@H]1c1ccccc1` [Example 16.9, 3-(6-(3-chlorophenyl)-8-((4R,5S)-5-methyl-2-oxo-4-phenyloxazolidin-3-yl)-7-(((trans)-4-methylcyclohexyl)methyl)-7H-purin-2-yl)-1,2,4-oxadiazol-5(4H)-one], the IC50 worked out at 3.01 nM.

On to `C[C@@H]1COCCN1c1nc2nc(-c3noc(=O)[nH]3)nc(-c3cncc(Cl)c3)c2n1C[C@H]1CC[C@H](C)CC1` [Example 16.10, 3-(6-(5-chloropyridin-3-yl)-7-(((trans)-4-methylcyclohexyl)methyl)-8-((R)-3-methylmorpholino)-7H-purin-2-yl)-1,2,4-oxadiazol-5(4H)-one], for which the IC50 turned out to be 18.1 nM.

In the case of `C[C@@H]1COCCN1c1nc2nc(-c3n[nH]c(=O)o3)nc(-c3cncc(Cl)c3)c2n1C[C@H]1CC[C@H](C)CC1` [Example 16.11, 5-(6-(5-chloropyridin-3-yl)-7-(((trans)-4-methylcyclohexyl)methyl)-8-((R)-3-methylmorpholino)-7H-purin-2-yl)-1,3,4-oxadiazol-2(3H)-one], the 50% inhibitory concentration (IC50) was 27.7 nM.

Regarding `C[C@H]1CC[C@H](Cn2c(N3CCOC[C@H]3c3ccccc3)nc3nc(-c4noc(=O)[nH]4)nc(-c4ccccc4)c32)CC1` [Example 16.12, 3-(7-(((trans)-4-methylcyclohexyl)methyl)-6-phenyl-8-((R)-3-phenylmorpholino)-7H-purin-2-yl)-1,2,4-oxadiazol-5(4H)-one], the concentration for half-maximal inhibition (IC50) was 10.1 nM.

Take `CC(C)c1ccnc(-c2nc3nc(C(=O)O)nc(-c4ccc(F)cc4)c3n2C[C@H]2CC[C@H](C)CC2)c1` [Example 16.13, 6-(4-fluorophenyl)-7-[(trans-4-methylcyclohexyl)methyl]-8-[4-(1-methylethyl)pyridin-2-yl]-7H-purine-2-carboxylic acid]: the half-maximal inhibitory concentration (IC50) amounted to 401 nM.

The values above are taken from patent EP2951180B1, “2,6,7,8 SUBSTITUTED PURINES AS HDM2 INHIBITORS” (Merck Sharp & Dohme Corp., priority 2013, dated 2014).
